The text below walks through data of article PMC5477784 (MedChemComm, 2017).

The subject of assay [1] is other PRMTs including PRMT5. Particulars: cited from earlier work.
In assay [2] the target is T1, PRMT1 (Homo sapiens, UniProt Q99873). Put plainly: Mass spectrometric. Type of assay: biochemical. The note with it: inhibitor 0.2 mM; PRMT1 1 μM, SAM 200 μM, H4-20 50 μM, 30°C, 3.5 h.
The target of assay [3] is T1, PRMT1. Put plainly: Radiometric gel assay with [14C]SAM and H4-20, phosphorimaging. The assay is classed as biochemical. The note with it: inhibitor 0.2 mM; PRMT1 0.1 μM, [14C]SAM 20 μM, H4-20 100 μM, 30 min, 30°C.

T1 sequence (Q99873 1-353 isoform Q99873-3, species assumed): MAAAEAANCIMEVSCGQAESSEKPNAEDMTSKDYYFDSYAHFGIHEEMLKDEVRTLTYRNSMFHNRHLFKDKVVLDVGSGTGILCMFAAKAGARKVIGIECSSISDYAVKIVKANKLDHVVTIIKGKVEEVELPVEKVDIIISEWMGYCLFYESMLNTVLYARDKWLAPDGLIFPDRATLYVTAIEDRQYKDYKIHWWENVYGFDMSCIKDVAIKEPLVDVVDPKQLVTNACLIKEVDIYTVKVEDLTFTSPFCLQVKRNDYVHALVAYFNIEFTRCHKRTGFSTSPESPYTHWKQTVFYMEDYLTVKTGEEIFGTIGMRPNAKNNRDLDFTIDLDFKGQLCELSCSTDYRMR

Turning to `N=C(N)c1ccc(-c2ccc(-c3ccc(C(=N)N)cc3)o2)cc1` [Furamidine, furamidine], the “selectivity over the other PRMTs including PRMT5” value in assay [1] is on record as more than 10 fold. In assay [2], the “methyl transfer reaction H4-20 to dimethyl H4-20 (mass spectrum)” value was “incomplete inhibition”. The “methylation in radiometric gel assay” value in assay [3] was “methylation was still observed”.
